We go through 24 molecules from patent publication US7064120B2, “Tricyclic pyridyl carboxamides and derivatives thereof tocolytic oxytocin receptor antagonists” (Wyeth, priority 2001, dated 2006).

By inhibition is commonly meant the drop in the measured response relative to a control, in per cent. What is called IC50 is the midpoint of a concentration-inhibition curve.

Molecules are shown by their SMILES.

The target in one test is T1, human oxytocin receptor (Homo sapiens, UniProt P30559).
T1 construct: host or cells: CHO cells, stably transfected (pcDNA3.1 vector)
T1 sequence (P30559 1-389): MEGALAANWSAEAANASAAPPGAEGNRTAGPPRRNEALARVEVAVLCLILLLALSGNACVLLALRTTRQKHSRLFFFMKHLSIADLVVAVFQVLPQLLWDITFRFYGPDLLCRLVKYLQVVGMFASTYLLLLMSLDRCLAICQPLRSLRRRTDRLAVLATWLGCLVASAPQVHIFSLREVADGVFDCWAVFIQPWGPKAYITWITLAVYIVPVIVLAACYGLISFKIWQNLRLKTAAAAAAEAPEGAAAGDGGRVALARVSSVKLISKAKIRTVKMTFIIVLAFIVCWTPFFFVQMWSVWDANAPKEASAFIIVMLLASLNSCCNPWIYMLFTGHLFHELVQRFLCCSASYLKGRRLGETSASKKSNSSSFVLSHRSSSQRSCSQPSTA
Description: Oxytocin binding in CHO cell membranes expressing human oxytocin receptors ([3H]oxytocin radioligand binding). As to conditions: 100 nM, read-out: OT % inhibition @ 100 nM. Put shortly:
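Values are % inhibition at one concentration or nM IC50 from [3H]oxytocin displacement. Membranes from human oxytocin receptor CHO cells, 25–50 μg protein/well, 60 min at room temperature, pH 7.4 Tris buffer with protease inhibitors; bound label by filtration and scintillation counting.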
With `Cc1cc(C(=O)N2Cc3ccc(C(=O)NCc4ccncc4)n3Cc3ccccc32)ccc1-c1ccccc1C(F)(F)F` [Example 100, 10-{[2-Methyl-2′-trifluoromethyl-[1,1′-biphenyl]-4-yl]carbonyl}-N-(4-pyridinylmethyl)-10,11-dihydro-5H-pyrrolo[2,1-c][1,4]benzodiazepine-3-carboxamide], the inhibition at 0.1 µM amounted to 24%.
As to `COc1cc(-c2ccccc2C)c(Cl)cc1C(=O)N1Cc2ccc(C(=O)N3CCN(c4ccccn4)CC3)n2Cc2ccccc21` [Example 81, {10-[(6-Chloro-3-methoxy-2′-methyl-[1,1′-biphenyl]-4-yl)carbonyl]-10,11-dihydro-5H-pyrrolo[2,1-c][1,4]benzodiazepin-3-yl}[4-(2-pyridinyl)-1-piperazinyl]methanone], the inhibition at 0.1 µM is 50%.
For `COc1ccccc1-c1ccc(C(=O)N2Cc3ccc(C(=O)N4CCN(c5ccccn5)CC4)n3Cc3ccccc32)cc1C` [Example 75, {10-[(2′-Methoxy-2-methyl-[1,1′-biphenyl]-4-yl)carbonyl]-10,11-dihydro-5H-pyrrolo[2,1-c][1,4]benzodiazepin-3-yl}[4-(2-pyridinyl)-1-piperazinyl]methanone], the inhibition at 0.1 µM is 62%.
As to `COc1cc(C(=O)N2Cc3ccc(C(=O)NCc4ccncc4)n3Cc3ccccc32)ccc1-c1cccc2ccccc12` [Example 96, 10-[3-Methoxy-4-(naphthalen-1-yl)benzoyl]-N-(4-pyridinylmethyl)-10,11-dihydro-5H-pyrrolo[2,1-c][1,4]benzodiazepine-3-carboxamide], the inhibition at 0.1 µM was determined as 28%.
`Cc1ccccc1-c1ccc(C(=O)N2Cc3ccc(C(=O)NCc4ccncc4)n3Cc3ccccc32)cc1C` [Example 89, 10-[(2,2′-Dimethyl-[1,1′-biphenyl]-4-yl)carbonyl]-N-(4-pyridinylmethyl)-10,11-dihydro-5H-pyrrolo[2,1-c][1,4]benzodiazepine-3-carboxamide]: the inhibition at 0.1 µM is 67%.
Take `COc1ccccc1-c1ccc(C(=O)N2Cc3ccc(C(=O)N(C)CCc4ccccn4)n3Cc3ccccc32)cc1` [Example 67, 10-[(2′-Methoxy-[1,1′-biphenyl]-4-yl)carbonyl]-N-methyl-N-[2-(2-pyridinyl)ethyl]-10,11-dihydro-5H-pyrrolo[2,1-c][1,4]benzodiazepine-3-carboxamide]: the inhibition at 0.1 µM was 91%.
Same read-out and setting: to `Cc1cc(C(=O)N2Cc3ccc(C(=O)N4CCN(c5ccccn5)CC4)n3Cc3ccccc32)ccc1-c1ccccc1C(F)(F)F` [Example 87, (10-{[2-Methyl-2′-trifluoromethyl-[1,1′-biphenyl]-4-yl]carbonyl}-10,11-dihydro-5H-pyrrolo[2,1-c][1,4]benzodiazepin-3-yl)[4-(2-pyridinyl)-1-piperazinyl]methanone] belongs 52%; to `COc1cccc(-c2cc(OC)c(C(=O)N3Cc4ccc(C(=O)N5CCN(c6ccccn6)CC5)n4Cc4ccccc43)cc2Cl)c1` [Example 82, {10-[(6-Chloro-3,3′-dimethoxy-[1,1′-biphenyl]-4-yl)carbonyl]-10,11-dihydro-5H-pyrrolo[2,1-c][1,4]benzodiazepin-3-yl}[4-(2-pyridinyl)-1-piperazinyl]methanone], 27%.
Consider `COc1cc(C(=O)N2Cc3ccc(C(=O)N(C)CCc4ccccn4)n3Cc3ccccc32)ccc1-c1ccccc1C` [Example 69, 10-[(2-Methoxy-2′-methyl-[1,1′-biphenyl]-4-yl)carbonyl]-N-methyl-N-[2-(2-pyridinyl)ethyl]-10,11-dihydro-5H-pyrrolo[2,1-c][1,4]benzodiazepine-3-carboxamide], for which the inhibition at 0.1 µM is 94%.
Same read-out and setting: as for `COc1cc(C(=O)N2Cc3ccc(C(=O)N4CCN(c5ccccn5)CC4)n3Cc3ccccc32)ccc1-c1ccccc1C` [Example 80, {10-[(2-Methoxy-2′-methyl-[1,1′-biphenyl]-4-yl)carbonyl]-10,11-dihydro-5H-pyrrolo[2,1-c][1,4]benzodiazepin-3-yl}[4-(2-pyridinyl)-1-piperazinyl]methanone], the figure is 50%; as for `Cc1ccccc1-c1ccc(C(=O)N2Cc3ccc(C(=O)N(C)CCc4ccccn4)n3Cc3ccccc32)cc1C` [Example 66, 10-[(2,2′-Dimethyl-[1,1′-biphenyl]-4-yl)carbonyl]-N-methyl-N-[2-(2-pyridinyl)ethyl]-10,11-dihydro-5H-pyrrolo[2,1-c][1,4]benzodiazepine-3-carboxamide], 92%; as for `COc1cccc(-c2ccc(C(=O)N3Cc4ccc(C(=O)N(C)CCc5ccccn5)n4Cc4ccccc43)cc2OC)c1` [Example 72, 10-[(2,3′-Dimethoxy-[1,1′-biphenyl]-4-yl)carbonyl]-N-methyl-N-[2-(2-pyridinyl)ethyl]-10,11-dihydro-5H-pyrrolo[2,1-c][1,4]benzodiazepine-3-carboxamide], 89%.
The same measure, in the same setting: to `COc1ccccc1-c1ccc(C(=O)N2Cc3ccc(C(=O)N4CCN(c5ccccn5)CC4)n3Cc3ccccc32)cc1` [Example 78, {10-[(2′-Methoxy-[1,1′-biphenyl]-4-yl)carbonyl]-10,11-dihydro-5H-pyrrolo[2,1-c][1,4]benzodiazepin-3-yl}[4-(2-pyridinyl)-1-piperazinyl]methanone] belongs 59%; to `COc1ccccc1-c1ccc(C(=O)N2Cc3ccc(C(=O)NCc4ccncc4)n3Cc3ccccc32)cc1OC` [Example 97, 10-[(2,2′-Dimethoxy-[1,1′-biphenyl]-4-yl)carbonyl]-N-(4-pyridinylmethyl)-10,11-dihydro-5H-pyrrolo[2,1-c][1,4]benzodiazepine-3-carboxamide], 36%; to `COc1cccc(-c2cc(OC)c(C(=O)N3Cc4ccc(C(=O)NCc5ccncc5)n4Cc4ccccc43)cc2Cl)c1` [Example 95, 10-[(6-Chloro-3,3′-dimethoxy-[1,1′-biphenyl]-4-yl)carbonyl]-N-(4-pyridinylmethyl)-10,11-dihydro-5H-pyrrolo[2,1-c][1,4]benzodiazepine-3-carboxamide], 7%.
As for `O=C(c1ccc2n1Cc1ccccc1N(C(=O)c1ccc(-c3cccc4ccccc34)cc1Cl)C2)N1CCN(c2ccccn2)CC1` [Example 86, {10-[2-Chloro-4-(naphthalen-1-yl)benzoyl]-10,11-dihydro-5H-pyrrolo[2,1-c][1,4]benzodiazepin-3-yl}[4-(2-pyridinyl)-1-piperazinyl]methanone], the inhibition at 0.1 µM was 21%.
As for `COc1cccc(-c2cc(OC)c(C(=O)N3Cc4ccc(C(=O)N(C)CCc5ccccn5)n4Cc4ccccc43)cc2Cl)c1` [Example 70, 10-[(6-Chloro-3,3′-dimethoxy-[1,1′-biphenyl]-4-yl)carbonyl]-N-methyl-N-[2-(2-pyridinyl)ethyl]-10,11-dihydro-5H-pyrrolo[2,1-c][1,4]benzodiazepine-3-carboxamide], the inhibition at 0.1 µM stood at 77%.

The same test, now with this note: value in parentheses, read-out: OT (IC50).
In the case of `Cc1cc(C(=O)N2Cc3ccc(C(=O)N4CCN(Cc5ccc[n+]([O-])c5C)CC4)n3Cc3ccccc32)ccc1-c1ccccc1C(F)(F)F` [Example 3, 3-({4-[(2-Methyl-1-oxidopyridin-3-yl)methyl]piperazin-1-yl}carbonyl)-10-{[2-methyl-2′-trifluoromethyl-[1,1′-biphenyl]-4-yl]carbonyl}-10,11-dihydro-5H-pyrrolo[2,1-c][1,4]benzodiazepine], the IC50 was found to be 45 nM.
Still for that read-out and setting: to `COc1cccc(-c2ccc(C(=O)N3Cc4ccc(C(=O)N(C)Cc5cccnc5)n4Cc4ccccc43)cc2C)c1` [Example 102, 10-[(3′-Methoxy-2-methyl-[1,1′-biphenyl]4-yl)carbonyl]-N-methyl-N-(3-pyridinyImethyl)-10,11-dihydro-5H-pyrrolo[2,1-c][1,4]benzodiazepine-3-carboxamide] belongs 4.14 nM.
The same measure, in the same setting: to `COc1cccc(-c2ccc(C(=O)N3Cc4ccc(C(=O)N(C)CCc5ccccn5)n4Cc4ccccc43)cc2C)c1` [Example 62, 10-[(3′-Methoxy-2-methyl-[1,1′-biphenyl]-4-yl)carbonyl]-N-methyl-N-[2-(2-pyridinyl)ethyl]-10,11-dihydro-5H-pyrrolo[2,1-c][1,4]benzodiazepine-3-carboxamide] belongs 10.7 nM; to `Cc1cc(C(=O)N2Cc3ccc(C(=O)N4CCN(Cc5ccc[n+]([O-])c5)CC4)n3Cc3ccccc32)ccc1-c1ccccc1C(F)(F)F` [Example 2, 10-{[2-Methyl-2′-trifluoromethyl-[1,1′-biphenyl]-4-yl]carbonyl}-3-({4-[(1-oxidopyridin-3-yl)methyl]piperazin-1-yl}carbonyl)-10,11-dihydro-5H-pyrrolo[2,1-c][1,4]benzodiazepine], 16.8 nM; to `COc1cc(C(=O)N2Cc3ccc(C(=O)N(C)Cc4cccnc4)n3Cc3ccccc32)ccc1-c1ccccc1C(F)(F)F` [Example 7, 10-{[2-Methoxy-2′-trifluoromethyl-[1,1′-biphenyl]-4-yl]carbonyl}-N-methyl-N-(pyridin-3-ylmethyl)-10,11-dihydro-5H-pyrrolo[2,1-c][1,4]benzodiazepine-3-carboxamide], 3.34 nM.
On to `Cc1cc(C(=O)N2Cc3ccc(C(=O)N4CCN(c5ccncc5)CC4)n3Cc3ccccc32)ccc1-c1ccccc1C(F)(F)F` [Example 1], for which the IC50 amounted to 11.2 nM.
Regarding `COc1ccccc1-c1ccc(C(=O)N2Cc3ccc(C(=O)N(C)Cc4cccnc4)n3Cc3ccccc32)cc1C` [Example 101, 10-[(2′-Methoxy-2-methyl-[1,1′-biphenyl]-4-yl)carbonyl]-N-methyl-N-(3-pyridinylmethyl)-10,11-dihydro-5H-pyrrolo[2,1-c][1,4]benzodiazepine-3-carboxamide], the concentration for half-maximal inhibition (IC50) came to 2.23 nM.
